# Experimental data from article PMC2119788 (The Journal of Cell Biology, 1993).
# What was measured:
# [1] = tested on: A-1 cells; type: cell-based; details: included in the assay media at 100 ug/ml; data not shown
# [2] = tested on: A-1 fibroblasts; details: previous report; ref Roch et al., 1992; cited from earlier work
Substance,Inhibition of the growth-promoting effect of 17-mer or KB75 [1],Activity on the A-1 cell growth assay [2]
heparan sulfate,failed to inhibit,
heparin,failed to inhibit,
TPDAVDKYLETPGDENEHAHFQKAKERLEAKHRERMSQVM [40-mer],,active
